Test results taken from patent US8466160B2, “Identification of non-small cell lung carcinoma (NSCLC) tumors expressing PDGFR-alpha” (priority 2005, dated 2013).
Structures can show the parent of a compound that is named as a salt.

Assays:
[1] = tested on: AKT phosphorylation; assay: IHC of AKT phosphorylation in xenograft tumors; format: in vivo, mice; details: treated vs control tumors, FIG. 11
Procedure: (§1) In this model, human cell lines are injected into immune-compromised mice forming xenograft tumors that resemble human tumors including vascularization and other features found in human tumors. The mice are then administered the drug in the same manner as in human patients. Tumor size may be monitored visually during drug treatment and the tumors may be removed, fixed and analyzed by standard IHC procedures or lysed and analyzed by Western blot.

[2] = tested on: H1703 cell line; assay: MTT cell proliferation assay, H1703; format: cell-based, human; details: concentrations similar to K562 (0.1 μM)
[3] = tested on: K562 cell line; assay: MTT cell proliferation assay, K562; format: cell-based
[4] = tested on: PDGFRα phosphorylation; assay: Western blot of PDGFRα phosphorylation in H1703 cells; format: cell-based, human; details: dose response, FIG. 9(b)
[5] = tested on: H1373 cell line; assay: MTT cell proliferation assay, H1373; format: cell-based, human
[6] = tested on: PDGFRα-expressing human NSCLC tumors (H1703) xenografts; assay: Tumor size in mouse xenografts of PDGFRα-expressing human NSCLC tumors; format: in vivo, mice
Procedure: This hypothesis was tested using mouse xenografts derived from the H1703 cell line.
as §1

[7] = tested on: A549 cell line; assay: MTT cell proliferation assay, A549; format: cell-based, human
[8] = tested on: PDGFRα phosphorylation; assay: Western blot / IHC of PDGFRα phosphorylation in xenograft tumors; format: in vivo, mice
Procedure: as §1

[9] = tested on: A549 cell line; details: Mol. Cancer 2003, not reproduced by the inventors; cited from earlier work
[10] = tested on: AKT phosphorylation; assay: Western blot of AKT phosphorylation in H1703 cells; format: cell-based, human
Procedure: (§2) Phosphorylation of the EGFR receptor, ERK and AKT were determined while total PDGFRα and ERK1/2 are included as loading controls. […] AKT is thought to be the primary driver of cell survival (see Franke, Cell 88: 435-437 (1997)).

[11] = tested on: ERK phosphorylation; assay: Western blot of ERK phosphorylation in H1703 cells; format: cell-based, human; details: FIG. 9(a)
Procedure: as §2

| Structure (SMILES) | effect on AKT phosphorylation in xenograft tumors (IHC) [1] | sensitivity of cell growth to Gleevec (MTT) [2] | concentration at which cell line is sensitive (MTT) [3] | lowest dose that inhibits PDGFRα phosphorylation [4] | sensitivity of cell growth to Gleevec (MTT) [5] | average tumor diameter in treated mice ([6]; 3 treated mice, control approximately 190 mm) | effect on tumor size ([6]; xenograft, FIG. 10(a)) | concentration up to which cell growth was not affected (MTT) [7] | effect on PDGFRα phosphorylation in xenograft tumors (IHC) ([8]; treated vs control tumors, FIG. 11) | effect on PDGFRα phosphorylation in xenografts (Western blot) ([8]; tumor lysate, 4 treated mice vs one control) | growth of A549 cell line as reported by Zhang et al. [9] | effect on AKT phosphorylation ([10]; Western blot, FIG. 9(a)) | dose that greatly inhibits AKT phosphorylation ([10]; dose response, FIG. 9(b)) | effect on ERK phosphorylation [11] |
| --- | --- | --- | --- | --- | --- | --- | --- | --- | --- | --- | --- | --- | --- | --- |
| Cc1ccc(NC(=O)c2ccc(CN3CCN(C)CC3)cc2)cc1Nc1nccc(-c2cccnc2)n1 [Gleevec®, Imatinib mesylate] | decrease | sensitive | 0.1 µM | 0.01 µM | insensitive | approximately 20 mm | significant decrease in tumor size | > 10 µM | decrease | inhibiting PDGFRα phosphorylation | growth inhibition | loss of AKT phosphorylation | 0.1 µM |  |
| COc1cc2ncnc(Nc3ccc(F)c(Cl)c3)c2cc1OCCCN1CCOCC1 [Iressa™] |  |  |  |  |  |  |  |  |  |  |  |  |  | decreases |
